Test results: patent US20200338158A1, “Therapeutic Drug for Non-Alcoholic Fatty Liver Disease” (Shanghai Hep Pharmaceutical Co., Ltd., priority 2017, published 2020)
Entries after “also recorded” stand apart in the source; their conditions may differ.

What was measured:
Type in all cases: in vivo
C57BL6 mice [1] = experiment: Liver weight and gross liver observation, mouse NASH model (high fat feed + high sugar water)
Description: (§1) In this example, a mouse nonalcoholic steatohepatitis (NASH) model was used to evaluate the effect of hepalatide (L47) on pathological changes and metabolism level of NASH, and to determine whether L47 can improve the pathological changes of NASH, so as to provide reference for pharmacodynamic evaluation of L47 before clinical treatment.
4.1.2 Model group (HFC-F/G): high fat feed+high sugar water, 9 mice in total, wherein 3 mice were sacrificed at week 8, and 6 mice were sacrificed at week 16.
4.1.3 Low dose group 1 (HFC-F/G+HL1): high fat feed+high sugar water+L47 20 mg/kg (10 mg/kg*2/d, i.e. once in the morning and once in the afternoon), 10 mice in total, wherein 3 mice were sacrificed at week 8, and 7 mice were sacrificed at week 16.
4.1.4 High dose group 1 (HFC-F/G+HH1): high fat feed+high sugar water+L47 60 mg/kg (30 mg/kg*2/d, i.e. once in the morning and once in the afternoon), 10 mice in total, wherein 3 mice were sacrificed at week 8, and 7 mice were sacrificed at week 16.
4.1.5 Low dose group 2 (HFC-F/G+HL2): high fat feed+high sugar water+L47 20 mg/kg (10 mg/kg*2/d, i.e. once in the morning and once in the afternoon, with pharmacologic intervention started 8 weeks after initiation of the experiment), 5 mice in total, which are sacrificed after 16 weeks.
4.1.6 High dose group 2 (HFC-F/G+HH2): high fat feed+high sugar water+L47 60 mg/kg (30 mg/kg*2/d, i.e. once in the morning and once in the afternoon, with pharmacologic intervention started 8 weeks after initiation of the experiment), 5 mice in total, which are sacrificed after 16 weeks.
Route of administration: subcutaneous injection.
At week 8 and week 16, liver was separated by dissection after anesthesia and blood collection, and pathological changes of liver tissues and accumulation of abdominal fat were grossly observed by the naked eye.

C57BL6 mice [2] = experiment: Liver biochemistry test, mouse NASH model
Description: as §1
Hydroxyproline and free fatty acid (FFA) kits (Cat No.: A030-3 and A042-1, respectively) were provided by Nanjing Jiancheng Bioengineering Research Institute;
Triglyceride (TG) and cholesterol (TC) (Cat No.: E1013-105 and E1015 respectively) were provided by Applygen Technologies Inc.
At week 8 and week 16, liver was taken and levels of TG, TC, free fatty acid (FFA), hydroxyproline (HYP) were measured.

C57BL6 mice [3] = experiment: Glucose tolerance, fasting insulin and insulin resistance index, mouse NASH model; conditions: for blood glucose level in glucose tolerance test: treatment groups vs model group; for fasting serum insulin level / insulin resistance HOMA-RI level: vs model group
Description: As used herein, homeostatic model assessment (HOMA) index may refer HOMA-IR (quantifying the level of insulin resistance) index. The value of HOMA-IR can be calculated by following the formula of: HOMA-IR=[(blood glucose expressed in mmol/L)×(serum insulin expressed in mU/L)]/22.5.
as §1
5.2.3 Insulin ELISA Test Kit, Cat No.: EZRMI-13K, Millipore Company.
At week 8 and week 16, fasting blood glucose and glucose tolerance (subcutaneous injection of glucose: 2.5 mg/g, preparation concentration: 250 mg/ml) were measured in mice, blood glucose levels were measured at 0, 30, 60, 90 and 120 min after the injection of glucose, and insulin resistance index was calculated according to the fasting insulin level.

C57BL6 mice [4] = experiment: Blood (serum) biochemistry test, mouse NASH model
Description: as §1
Total cholesterol (TC), triglyceride (TG), total bilirubin (TBIL), high-density lipoprotein cholesterol (HDL-C), low-density lipoprotein cholesterol (LDL-C), alkaline phosphatase (ALP), albumin (ALB), aspartate aminotransferase (AST) and alanine aminotransferase (ALT) were provided by Shanghai Adicon Company and tested by automatic biochemical analyzer.
Total bile acid (TBA), very low density lipoprotein (VLDL): provided by Nanjing Jiancheng Bioengineering Institute.
At week 8 and week 16, blood was taken from fasted mice (fasted for 12 hours) after anesthesia, and levels of serum TG, TC, ALB, ALP, ALT, AST, HDL-C, LDL-C, VLDL, TBIL, TBA, insulin (Ins) were measured.

C57BL6 mice [5] = experiment: Quantitative CT of body fat deposition, mouse NASH model; conditions: week 16; for subcutaneous fat (CT): vs model group
Description: as §1
Quantitative CT was used to locate and quantify subcutaneous, visceral and brown fat in mice at week 16.

[6] = week 16, vs model group, HL2 (L47 10 mg/kg*2/d s.c., started after 8 weeks), p<0.05
[7] = week 8, treatment groups (HL1, HH1) vs model group
[8] = week 16, treatment groups vs model group
[9] = week 16, vs model group, HL1 (L47 10 mg/kg*2/d s.c. from start)
[10] = week 16, treatment groups vs model group (conclusions)
[11] = week 16, HH2 (L47 30 mg/kg*2/d s.c., started after 8 weeks), p<0.001
[12] = week 16, HL2 (L47 10 mg/kg*2/d s.c., started after 8 weeks)
[13] = week 8, treatment groups vs model group
[14] = week 8, vs model group, HL1 (L47 10 mg/kg*2/d s.c. from start)
[15] = week 16, vs model group, HH2 (L47 30 mg/kg*2/d s.c., started after 8 weeks), 30 mg/kg
[16] = week 16, vs model group, high dose group 1 (L47 30 mg/kg*2/d s.c. from start), 30 mg/kg
[17] = treatment groups vs model group

hepalatide [L47]
general observation of liver change (color, weight) (C57BL6 mice [1]; treatment groups vs model group, week 8 implied): improved | liver weight (C57BL6 mice [1]; week 8, each group (HL1, HH1)): no significant difference | general observation of liver change (color, weight) (C57BL6 mice [1]; week 16, low dose group 2 and high dose group 2 vs model group): liver colors tended to be normal | liver weight (C57BL6 mice [1]; [6]): decreased significantly | liver FFA level (C57BL6 mice [2]; week 8, high dose group vs model group, p<0.05): statistical significance | liver FFA level (C57BL6 mice [2]; [7]): decreasing trends; also recorded: decreased significantly | liver hydroxyproline level (C57BL6 mice [2]; [7]): decreasing trends; also recorded: reduced | liver TC level (C57BL6 mice [2]; week 8, treatment groups (HL1, HH1) vs model group, p<0.001, p≤0.001): significantly decreased | liver TG level (C57BL6 mice [2]; week 8, treatment groups (HL1, HH1) vs model group, p≤0.001, p<0.001): significantly decreased; also recorded: decreased significantly | liver hydroxyproline level (C57BL6 mice [2]; week 16, HH1 (L47 30 mg/kg*2/d s.c. from start)): higher | liver hydroxyproline level (C57BL6 mice [2]; week 16, HL1 (L47 10 mg/kg*2/d s.c. from start)): higher | liver TC level (C57BL6 mice [2]; week 16, treatment groups (HL1, HH1, HL2, HH2) vs model group, p<0.001 each): significantly decreased | liver FFA level (C57BL6 mice [2]; [8]): decreased; also recorded: decreasing trends | liver TG level (C57BL6 mice [2]; week 16, vs model group, HH1 (L47 30 mg/kg*2/d s.c. from start)): decreasing trends | liver hydroxyproline level (C57BL6 mice [2]; week 16, vs model group, HH2 (L47 30 mg/kg*2/d s.c., started after 8 weeks), more significant, p<0.05): decreased | liver TG level (C57BL6 mice [2]; week 16, vs model group, HH2 (L47 30 mg/kg*2/d s.c., started after 8 weeks), p<0.05): significantly decreased | liver TG level (C57BL6 mice [2]; [9]): decreasing trends | liver hydroxyproline level (C57BL6 mice [2]; week 16, vs model group, HL2 (L47 10 mg/kg*2/d s.c., started after 8 weeks)): decreased | liver TG level (C57BL6 mice [2]; week 16, vs model group, HL2 (L47 10 mg/kg*2/d s.c., started after 8 weeks), p<0.01): significantly decreased | blood glucose level in glucose tolerance test (C57BL6 mice [3]; week 8, 90 min after glucose, p<0.05, p<0.01): significantly decreased | blood glucose level in glucose tolerance test (C57BL6 mice [3]; week 8, 120 min after glucose, p<0.01): significantly decreased | blood glucose level in glucose tolerance test (C57BL6 mice [3]; week 16, 90 min after glucose): decreasing trend | blood glucose level in glucose tolerance test (C57BL6 mice [3]; week 16, 120 min after glucose): decreasing trend | blood glucose (C57BL6 mice [3]; [10]): decreased | fasting serum insulin level (C57BL6 mice [3]; week 16, HH1 (L47 30 mg/kg*2/d s.c. from start), p<0.001): significantly decreases | insulin resistance HOMA-RI level (C57BL6 mice [3]; week 16, HH1 (L47 30 mg/kg*2/d s.c. from start), p<0.05): significantly decreases | insulin resistance HOMA-RI level (C57BL6 mice [3]; week 16, HH2 (L47 30 mg/kg*2/d s.c., started after 8 weeks)): decreasing trend | fasting serum insulin level (C57BL6 mice [3]; [11]): significantly decreases | fasting serum insulin level (C57BL6 mice [3]; week 16, HL1 (L47 10 mg/kg*2/d s.c. from start), p<0.001): significantly decreases | insulin resistance HOMA-RI level (C57BL6 mice [3]; week 16, HL1 (L47 10 mg/kg*2/d s.c. from start), p<0.05): significantly decreases | fasting serum insulin level (C57BL6 mice [3]; [12]): decreasing trend | insulin resistance HOMA-RI level (C57BL6 mice [3]; [12]): no significant difference | serum LDL-C level (C57BL6 mice [4]; at week 20 (so in the source), HH1 (L47 30 mg/kg*2/d s.c. from start), p<0.01): decreased | serum LDL-C level (C57BL6 mice [4]; at week 20 (so in the source), HL1 (L47 10 mg/kg*2/d s.c. from start), p≤0.001): decreased | serum HDL-C level (C57BL6 mice [4]; at week 20 (so in the source), treatment groups except HH2, vs model group, p<0.01): decreased | serum LDL-C level (C57BL6 mice [4]; week 8, HH1 (L47 30 mg/kg*2/d s.c. from start)): decreased | serum TC level (C57BL6 mice [4]; week 8, HL1 (L47 10 mg/kg*2/d s.c. from start), p<0.05): decreased significantly | serum AST level (C57BL6 mice [4]; [7]): decreasing trend; also recorded: decreased | serum TC level (C57BL6 mice [4]; [7]): significantly decreased | serum TG level (C57BL6 mice [4]; [7]): significantly decreased | serum ALT level (C57BL6 mice [4]; week 8, treatment groups (HL1, HH1) vs model group, p≤0.001): significantly decreased | serum ALB level (C57BL6 mice [4]; [13]): decreased | serum ALP level (C57BL6 mice [4]; [13]): no significant difference | serum HDL level (C57BL6 mice [4]; [13]): no significant difference | serum LDL level (C57BL6 mice [4]; [13]): decreased | serum VLDL level (C57BL6 mice [4]; [13]): no significant difference | serum HDL-C level (C57BL6 mice [4]; [14]): decreased | serum LDL-C level (C57BL6 mice [4]; [14]): decreased | serum ALB level (C57BL6 mice [4]; [11]): slightly decreased | serum ALB level (C57BL6 mice [4]; week 16, HL2 (L47 10 mg/kg*2/d s.c., started after 8 weeks), p<0.001): slightly decreased | serum ALP level (C57BL6 mice [4]; week 16, among the groups): no significant difference | serum ALB level (C57BL6 mice [4]; week 16, other groups (HL1, HH1)): no difference | serum VLDL level (C57BL6 mice [4]; week 16, other groups except HL2 (HL1, HH1, HH2) vs model group): increased | serum TC level (C57BL6 mice [4]; week 16, treatment groups (HL1, HH1, HL2, HH2) vs model group, p<0.001, p<0.001, p≤0.001, p<0.05): significantly decreased | serum TG level (C57BL6 mice [4]; [8]): did not decrease; also recorded: no significant difference | serum HDL level (C57BL6 mice [4]; [10]): decreased | serum LDL level (C57BL6 mice [4]; [10]): decreased | serum VLDL level (C57BL6 mice [4]; [10]): no significant difference | serum ALT level (C57BL6 mice [4]; [15]): decreasing trends; also recorded: decreased significantly | serum AST level (C57BL6 mice [4]; [15]): decreasing trends; also recorded: decreased significantly | serum ALT level (C57BL6 mice [4]; [9]): did not decrease | serum AST level (C57BL6 mice [4]; [9]): did not decrease | serum ALT level (C57BL6 mice [4]; [6]): significantly decreased | serum AST level (C57BL6 mice [4]; [6]): significantly decreased | serum ALT level (C57BL6 mice [4]; [16]): did not decrease; also recorded: increasing trends | serum AST level (C57BL6 mice [4]; [16]): did not decrease; also recorded: increasing trends | subcutaneous fat (quantitative body fat on CT scan) (C57BL6 mice [5]; L47 treatment groups vs model group (conclusions)): decreased significantly | brown fat (CT) (C57BL6 mice [5]; [17]): no significant difference | visceral fat (CT) (C57BL6 mice [5]; [17]): no significant difference; also recorded: no significant effect | subcutaneous fat (CT) (C57BL6 mice [5]; HH1 (L47 30 mg/kg*2/d s.c. from start)): decreased | subcutaneous fat (CT) (C57BL6 mice [5]; HH2 (L47 30 mg/kg*2/d s.c., started after 8 weeks)): decreased | subcutaneous fat (CT) (C57BL6 mice [5]; HL2 (L47 10 mg/kg*2/d s.c., started after 8 weeks)): decreased
